Our source for the Activity values is ChEMBL document CHEMBL1764998, “Structures, synthesis, and human Nod1 stimulation of immunostimulatory bacterial peptidoglycan fragments in the environment” (J Nat Prod, 2011).

Assay type in all cases: cell-based
What all share (details): HEK-293T

For test [1], the target named is T1, Nucleotide-binding oligomerization domain-containing protein 1 (Homo sapiens) (UniProt Q9Y239).
T1 sequence (whole entry): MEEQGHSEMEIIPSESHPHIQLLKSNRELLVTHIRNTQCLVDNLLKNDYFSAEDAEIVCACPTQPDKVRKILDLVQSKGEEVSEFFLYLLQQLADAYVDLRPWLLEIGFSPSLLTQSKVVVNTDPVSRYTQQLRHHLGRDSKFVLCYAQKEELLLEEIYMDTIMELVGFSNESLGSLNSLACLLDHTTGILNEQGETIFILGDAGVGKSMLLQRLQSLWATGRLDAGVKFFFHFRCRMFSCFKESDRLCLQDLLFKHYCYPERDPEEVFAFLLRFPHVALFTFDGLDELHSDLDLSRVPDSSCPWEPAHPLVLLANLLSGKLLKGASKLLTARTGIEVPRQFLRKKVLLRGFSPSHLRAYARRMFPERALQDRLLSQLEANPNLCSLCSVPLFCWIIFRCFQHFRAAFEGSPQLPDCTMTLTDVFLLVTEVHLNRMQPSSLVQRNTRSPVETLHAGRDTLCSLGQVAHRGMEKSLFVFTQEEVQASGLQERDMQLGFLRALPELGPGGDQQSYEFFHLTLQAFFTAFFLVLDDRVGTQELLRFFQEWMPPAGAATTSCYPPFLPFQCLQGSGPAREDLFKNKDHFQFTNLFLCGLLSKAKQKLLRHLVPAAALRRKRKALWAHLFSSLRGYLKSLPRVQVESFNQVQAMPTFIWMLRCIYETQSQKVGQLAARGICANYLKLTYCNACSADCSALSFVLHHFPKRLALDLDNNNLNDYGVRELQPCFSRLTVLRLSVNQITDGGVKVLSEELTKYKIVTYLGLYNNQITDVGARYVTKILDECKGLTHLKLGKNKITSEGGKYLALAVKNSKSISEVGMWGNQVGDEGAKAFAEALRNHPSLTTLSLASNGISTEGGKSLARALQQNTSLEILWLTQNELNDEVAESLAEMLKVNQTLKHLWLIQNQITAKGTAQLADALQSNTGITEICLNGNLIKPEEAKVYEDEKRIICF
In words: Induction of human NOD1 activity expressed in HEK293T cells assessed as NFKB activation at 1 to 100 ng/ml by luciferase reporter assay.

Test [2] concerns the target T1, Nucleotide-binding oligomerization domain-containing protein 1 (Homo sapiens). The experiment in a line: Induction of human NOD1 activity expressed in HEK293T cells assessed as NFKB activation at 0.1 to 1000 ng/ml by luciferase reporter assay.
Test [3] has the same target. The experiment in a line: Induction of human NOD1 activity expressed in HEK293T cells assessed as NFKB activation at 5 mM.

Molecules are shown by their SMILES. Active and inactive are the calls of the source. The calls are words filed in the database; no cut-off is given here.

Consider `CC(=O)N[C@H]1[C@H](O[C@H]2[C@H](OC(C)C(=O)N[C@@H](C)C(=O)N[C@H](CCC(=O)N[C@@H](CCC[C@@H](N)C(=O)O)C(=O)O)C(=O)O)[C@@H](NC(C)=O)[C@@H]3OC[C@H]2O3)O[C@H](CO)[C@@H](O)[C@@H]1O` (stereo partly specified), for which the outcome in test [1] was Active.
For the compound `CC(=O)N[C@@H]1[C@@H](OC(C)C(=O)N[C@@H](C)C(=O)N[C@H](CCC(=O)N[C@@H](CCC[C@@H](N)C(=O)O)C(=O)O)C(=O)O)[C@H](O[C@@H]2O[C@H](CO)[C@@H](O)[C@H](O)[C@H]2NC(C)=O)[C@@H](CO)O[C@H]1O` (stereo partly specified), the outcome in test [2] was Active.
With `C[C@H](N)C(=O)N[C@H](CCC(=O)N[C@@H](CCC[C@@H](N)C(=O)O)C(=O)O)C(=O)O`, the outcome in test [1] was Active.
For the compound `N[C@H](CCC[C@H](NC(=O)CC[C@@H](N)C(=O)O)C(=O)O)C(=O)O`, the result in test [1] was Active.
As to `CC(=O)N[C@@H]1[C@@H](OC(C)C(=O)N[C@@H](C)C(=O)N[C@H](CCC(=O)N[C@@H](CCC[C@@H](N)C(=O)O)C(=O)O)C(=O)O)[C@H](O)[C@@H](CO)O[C@H]1O` (stereo partly specified), the result in test [3] and in test [2] was Active.
